The values that follow come from EP0567613B1, “COMPOSITIONS FOR THERAPY AND PREVENTION OF CANCER” (The Government of the United States of America, as …, priority 1991, dated 1993).

One data set concerns Leukemia K562. The data set can be described thus: Tumor cell growth / proliferation. The conditions noted are these: K562 cell line.
Data set [1] relates to premalignant 10T1/2 cells. The data set can be described thus: cells. The conditions noted are these: for Differentiation at 1 mM: sodium salts; for DC50: Mus musculus, Adipocyte, read-out: DC50, concentration of compound causing 50% differentiation; for adipocyte conversion: glutamine antagonists. As to the method: C. Quantitation of adipocytosis. Lipids stained with Oil-Red O were extracted with butanol, and the optical density at 510 nm determined.
Lower: Quantitation of adipocytosis. Cells were fixed with 37% formaldehyde and stained with Oil-Red O. The stained intracellular lipid was extracted with butanol, and the optical density was determined using a Titertek Multiskan MC, manufactured by Flow Laboratories, at a wavelength 510 nm.

The subject of the next data set is C3H 10T1/2 Cells. The data set can be described thus: Tumorigenicity of treated cells in athymic mice. The following applies: time 8 weeks. The protocol:
Premalignant cells (3-4 x 10^5) were plated in 75 cm^2 dishes and 5-AzadC 0.1 µM was added to the growth medium at 20 and 48 hrs after plating. The cells were then subcultured in the absence of the nucleoside analog for an additional seven weeks. […] For the tumorigenicity assay, 4-5 week-old female athymic nude mice were inoculated s.c. with 1 x 10^6 cells and observed for tumor growth at the site of injection.

The next data set deals with 4C8a10 cells. The data set can be described thus: Malignant phenotype in culture / growth on matrigel. The data set is classed as cell-based. As to the method:
(§1) The experimental model involved nonmalignant 4C8a10 cells (revertants of Haras-transformed NIH3T3 fibroblasts). […]
^b Cells were plated on top of matrigel (reconstituted basement membrane) and observed for malignant growth pattern, i.e., active replication, development of characteristic processes, and invasion.

For data set [2], the system named is 4C8a10 cells (revertants of Haras-transformed NIH3T3 fibroblasts). The data set can be described thus: Tumor formation of cells pretreated in culture and injected s.c. into athymic nude mice. The data set is classed as in vivo. The conditions noted are these: cells pretreated with 5-AzadC 0.1 µM, after 3 weeks.
From the text: One-two weeks later the cells were transplanted subcutaneously into athymic mice.
as §1
Frederick Cancer Research Facility).

In a further data set the test system is 10T1/2 cells. The data set can be described thus: Neoplastic foci formation in culture. The text has this:
[…] The cells were then subcultured in the absence of the nucleoside analog for an additional seven weeks. […] For the tumorigenicity assay, 4-5 week-old female athymic nude mice were inoculated s.c. with 1 x 10^6 cells and observed for tumor growth at the site of injection.

A further data set deals with HL-60. The data set can be described thus: Granulocyte differentiation (NBT reduction, morphology) and viability by trypan blue exclusion. The following applies: Homo sapiens, HL-60, read-out: Cell viability. The protocol: The number of NBT positive cells was determined after 4 [solid bars] or 7 days [hatched bar] of treatment. […] Glutamine Starvation (Gln, < 0.06 mM) was as described (18).
The ability of cells to reduce nitroblue tetrazolium (NBT) is indicative of oxidase activity which is characteristic of the more mature forms of human bone marrow granulocytes. NBT reduction thus serves as an indicator of granulocyte differentiation. […] Glutamine starvation (Gln, < 0.06 mM) was as described. […] DON, ACV and HPA are glutamine antagonists.

In data set [3] the test system is Erythroleukemia K562 cells. The data set can be described thus: Induction of hemoglobin synthesis (benzidine staining, protein quantitation). The following applies: HU 100 µM, seven days.
Another data set concerns Malignant Melanoma A375. The data set can be described thus: Tumor cell growth / proliferation.
Data set [4] concerns Prostate Adenocarcinoma PC3. The data set can be described thus: Tumor cell growth / proliferation. Format: cell-based. The conditions noted are these: Homo sapiens, PC-3. The protocol: Studies of depth were performed with two androgenindependent human prostate adenocarcinoma cell lines, PC3 and DU145, established from bone and brain metastases, respectively.

Turning to `O=C(O)Cc1cc(O)cc(O)c1`, the toxicity result in the data set on Leukemia K562 is given as “highly toxic”.

As for `O=C(O)Cc1cccc2ccccc12` [1-naphthylacetate], in data set [1], the “Differentiation at 1 mM” value is recorded as more than 95% and the DC50 is less than 100 µM.

Consider `O=C(O)Cc1ccc(O)cc1O` [2,4-dihydroxyphenylacetate], for which the toxicity entry in the data set with Leukemia K562 was “highly toxic”.

With `O=C(O)Cc1c(Cl)cccc1Cl` [2,6-dichlorophenylacetate], in data set [1], the “Differentiation at 1 mM” value was determined as 75% and the DC50 was determined as 500 µM.

As to `O=C(O)Cc1cccc(Cl)c1` [3-chlorophenylacetate], in data set [1], the “Differentiation at 1 mM” value worked out at 80% and the DC50 was determined as 500 µM.

As for `O=C(O)Cc1ccc(Cl)cc1` [4-chlorophenylacetate], in data set [1], the “Differentiation at 1 mM” value was found to be 50% and the DC50 was determined as 1000 µM.

In the case of `O=C(O)Cc1ccc(F)cc1` [4-fluorophenylaceatae], in data set [1], the “Differentiation at 1 mM” value stood at 65% and the DC50 was found to be 700 µM.

For the compound `Nc1ncn([C@H]2C[C@H](O)[C@@H](CO)O2)c(=O)n1` [5-AzadC, 5-aza-2'-deoxycytidine, reference compound], in the data set on C3H 10T1/2 Cells (5-AzadC 0.1 µM at 20 and 48 hrs after plating, 1 x 10^6 cells s.c.), the “Tumors Incidence” value is given as 8/8. Also, the “Tumors Diameter” value with C3H 10T1/2 Cells (5-AzadC 0.1 µM) is reported as 5.5 ± 2.5 mm ± S.D. In addition, in the data set with 4C8a10 cells (5-AzadC 0.1 µM), the Growth on matrigel result is given as “+”. For the same compound, the “time until malignant conversion evident” value in the data set with 4C8a10 cells (transient treatment of premalignant cells) was not above 2 days. The “Tumor Formation Incidence” value in data set [2] (5x10^5 cells per site s.c.) is 8/8. For the same compound, in data set [2], the “Tumor Formation Size, mean (range)” value is 11.5 (4-19) mm. Also, the “frequency of foci of neoplastically transformed cells” value in the data set with 10T1/2 cells is on record as “about 7x10^-4”.

The viability is the share of living cells, or the viability signal relative to a control. As for `N[C@H](C(=O)O)[C@@H]1CC(Cl)=NO1` [ACV, acivicin], in the data set on HL-60, the viability at 1 µg/mL came out at 63% and the viability at 3 µg/mL amounted to 63%. Also, the adipocyte conversion result in data set [1] was “neither glutamine starvation nor by treatment with glutamine antagonists such as DON and ACV resulted in adipocyte conversion”.

As to `[N-]=[N+]=CC(=O)CC[C@H](N)C(=O)O` [DON, 6-diazo-5-oxo-L-norleucine], in the data set on HL-60, the viability at 25 µg/mL stood at 75% and the viability at 30 µg/mL stood at 75%. The adipocyte conversion entry in [1] is “neither glutamine starvation nor by treatment with glutamine antagonists such as DON and ACV resulted in adipocyte conversion”.

Take `NC(=O)NO` [HU, hydroxyurea, reference compound]: the “Benzidine Positive Cells” value in data set [3] is given as 17.2%.

Regarding `Cc1ccc(C(=O)Nc2ccc(S(=O)(=O)O)c3cc(S(=O)(=O)O)cc(S(=O)(=O)O)c23)cc1NC(=O)c1cccc(NC(=O)Nc2cccc(C(=O)Nc3cc(C(=O)Nc4ccc(S(=O)(=O)O)c5cc(S(=O)(=O)O)cc(S(=O)(=O)O)c45)ccc3C)c2)c1` [Suramin, suramin], the Growth is recorded as 78.3 % of control with Malignant Melanoma A375 (Suramin 38 µg/ml), 56.8 % of control in the data set with Malignant Melanoma A375 (Suramin 75 µg/ml), 38.6 % of control in the data set with Malignant Melanoma A375 (Suramin 150 µg/ml) and 26.6 % of control in the data set on Malignant Melanoma A375 (Suramin 300 µg/ml). Besides, the Viability with Malignant Melanoma A375 (Suramin 38 µg/ml) was more than 95%; in the data set with Malignant Melanoma A375 (Suramin 75 µg/ml) it was more than 95%; with Malignant Melanoma A375 (Suramin 150 µg/ml) it was 92%; in the data set with Malignant Melanoma A375 (Suramin 300 µg/ml), 82%. In data set [4] (Suramin 75 µg/ml), this compound showed an activity at 75 µg/mL of 58.5%. This compound came in with an activity at 150 µg/mL in [4] (Suramin 150 µg/ml) of 46.5%. In [4] (Suramin 300 µg/ml), this compound gave an activity at 300 µg/mL of 31%.
